Measurements reported in ChEMBL document CHEMBL5370564, “Discovery of novel hybrids of mTOR inhibitor and NO donor as potential anti-tumor therapeutics” (Bioorg Med Chem, 2023).
Active and inactive are the calls of the source. No cut-off for these calls is given here.

Tests used:
HL-60 [1] = test: Induction of NO release in human HL-60 cells at 100 uM incubated for 12 hrs by griess reagent based colorimetric assay; type: functional, cell-based
[2] = Cytotoxicity against HUVEC assessed as inhibition of cell growth incubated for 70 hrs by CCK-8 assay; type: toxicity, cell-based; details: human, HUVEC cells
[3] = molecular target: Serine/threonine-protein kinase mTOR (Homo sapiens, UniProt P42345); test: Inhibition of mTOR (unknown origin) using Ulight-4E-BP1 peptide as substrate incubated for 45 mins in presence of ATP by Lance Ultra assay
MCF7 = test: Antiproliferative activity against human MCF7 cells assessed as inhibition of cell growth incubated for 70 hrs by CCK-8 assay; type: functional, cell-based; details: MCF7, 70 h
HepG2 = test: Antiproliferative activity against human HepG2 cells assessed as inhibition of cell growth incubated for 70 hrs by CCK-8 assay; type: functional, cell-based; details: HepG2, 70 h
HL-60 [4] = test: Antiproliferative activity against human HL-60 cells assessed as inhibition of cell growth incubated for 70 hrs by CCK-8 assay; type: functional, cell-based; details: HL-60, 70 h
mTORC1 (Homo sapiens) = test: Inhibition of mTORC1 in human HL-60 cells assessed as reduction in S6 phosphorylation at Ser235/236 residue incubated for 24 hrs by Western blot assay; details: dose 20-160 nM
mTORC2 (Homo sapiens) = test: Inhibition of mTORC2 in human HL-60 cells assessed as reduction in Akt phosphorylation at S473 residue incubated for 24 hrs by Western blot assay; details: dose 20-160 nM

Nc1nc2cc(-c3nn(CCCC(=O)NCCCOc4no[n+]([O-])c4S(=O)(=O)c4ccccc4)c4ncnc(N)c34)ccc2o1
Activity (HL-60 [1]): Active
IC50 at 70 h [2]: > 10000 nM
IC50 [3]: 4.2 nM
IC50 (MCF7): 5180 nM
IC50 (HepG2): 9960 nM
IC50 (HL-60 [4]): 3500 nM

Nc1nc2cc(-c3nn(CCCC(=O)OCCCOc4no[n+]([O-])c4S(=O)(=O)c4ccccc4)c4ncnc(N)c34)ccc2o1
Activity (HL-60 [1]): Active
IC50 at 70 h [2]: 9370 nM
IC50 [3]: 6.39 nM
IC50 (MCF7): 2410 nM
IC50 (HepG2): 1320 nM
IC50 (HL-60 [4]): 90 nM

Nc1nc2cc(-c3nn(CCCC(=O)NCCOc4no[n+]([O-])c4S(=O)(=O)c4ccccc4)c4ncnc(N)c34)ccc2o1
Activity (HL-60 [1]): Active
IC50 at 70 h [2]: > 10000 nM
IC50 [3]: 7.9 nM
IC50 (MCF7): 6110 nM
IC50 (HepG2): > 10000 nM
IC50 (HL-60 [4]): 2050 nM

Nc1nc2cc(-c3nn(CCCC(=O)OCCO[N+](=O)[O-])c4ncnc(N)c34)ccc2o1
IC50 at 70 h [2]: > 10000 nM
IC50 [3]: 9.5 nM
IC50 (MCF7): > 10000 nM
IC50 (HepG2): > 10000 nM
IC50 (HL-60 [4]): > 10000 nM

Nc1nc2cc(-c3nn(CCCC(=O)OCCCCCO[N+](=O)[O-])c4ncnc(N)c34)ccc2o1
IC50 [3]: 12.5 nM

Nc1nc2cc(-c3nn(CCCC(=O)OCCCCO[N+](=O)[O-])c4ncnc(N)c34)ccc2o1
IC50 [3]: 12.9 nM

Nc1nc2cc(-c3nn(CCCC(=O)OCc4ccccc4OCc4c(-c5ccccc5)no[n+]4[O-])c4ncnc(N)c34)ccc2o1
IC50 [3]: 45.1 nM

Nc1nc2cc(-c3nn(CCCC(=O)OCCc4ccc(OCc5c(-c6ccccc6)no[n+]5[O-])cc4)c4ncnc(N)c34)ccc2o1
IC50 [3]: > 1000 nM

Nc1nc2cc(-c3nn(CCCC(=O)OCc4cccc(OCc5c(-c6ccccc6)no[n+]5[O-])c4)c4ncnc(N)c34)ccc2o1
IC50 [3]: 337 nM

Nc1nc2cc(-c3nn(CCCC(=O)OCCCCCCO[N+](=O)[O-])c4ncnc(N)c34)ccc2o1
IC50 [3]: 19.8 nM

Nc1nc2cc(-c3nn(CCCC(=O)OCCOc4no[n+]([O-])c4S(=O)(=O)c4ccccc4)c4ncnc(N)c34)ccc2o1
Activity (HL-60 [1]): Active
IC50 at 70 h [2]: 8940 nM
IC50 [3]: 3.31 nM
IC50 (MCF7): 2700 nM
IC50 (HepG2): 1050 nM
IC50 (HL-60 [4]): 80 nM

CC(C)n1nc(-c2ccc3oc(N)nc3c2)c2c(N)ncnc21 [SAPANISERTIB]
Activity (HL-60 [1]): inactive
IC50 at 70 h [2]: > 10000 nM
IC50 (MCF7): 1230 nM
IC50 (HepG2): 1730 nM
IC50 (HL-60 [4]): 160 nM

Nc1nc2cc(-c3nn(CCCC(=O)OCCCCOc4no[n+]([O-])c4S(=O)(=O)c4ccccc4)c4ncnc(N)c34)ccc2o1
Activity (HL-60 [1]): Active
IC50 at 70 h [2]: > 10000 nM
IC50 [3]: 6.71 nM
IC50 (MCF7): 610 nM
IC50 (HepG2): 1480 nM
IC50 (HL-60 [4]): 70 nM

Nc1nc2cc(-c3nn(CCCC(=O)OCCCCCCOc4no[n+]([O-])c4S(=O)(=O)c4ccccc4)c4ncnc(N)c34)ccc2o1
IC50 [3]: 11 nM

Nc1nc2cc(-c3nn(CCCC(=O)OCCOCCOc4no[n+]([O-])c4S(=O)(=O)c4ccccc4)c4ncnc(N)c34)ccc2o1
Activity (HL-60 [1]): Active
IC50 at 70 h [2]: > 10000 nM
IC50 [3]: 7.02 nM
IC50 (MCF7): 1390 nM
IC50 (HepG2): 1430 nM
IC50 (HL-60 [4]): 520 nM

Nc1nc2cc(-c3nn(CCCC(=O)OCCCCCOc4no[n+]([O-])c4S(=O)(=O)c4ccccc4)c4ncnc(N)c34)ccc2o1
Activity (HL-60 [1]): Active
IC50 at 70 h [2]: > 10000 nM
IC50 [3]: 9.52 nM
IC50 (MCF7): 2720 nM
IC50 (HepG2): 1430 nM
IC50 (HL-60 [4]): 160 nM

Nc1nc2cc(-c3nn(CCCC(=O)OCc4c(-c5ccccc5)no[n+]4[O-])c4ncnc(N)c34)ccc2o1
Activity (HL-60 [1]): Active
IC50 at 70 h [2]: > 10000 nM
IC50 [3]: 13.3 nM
IC50 (MCF7): > 10000 nM
IC50 (HepG2): > 10000 nM
IC50 (HL-60 [4]): 7700 nM

Nc1nc2cc(-c3nn(CCCC(=O)OCc4ccc(OCc5c(-c6ccccc6)no[n+]5[O-])cc4)c4ncnc(N)c34)ccc2o1
IC50 [3]: > 1000 nM

CC(COc1no[n+]([O-])c1S(=O)(=O)c1ccccc1)NC(=O)CCCn1nc(-c2ccc3oc(N)nc3c2)c2c(N)ncnc21 (stereo unspecified)
Activity (HL-60 [1]): Active
IC50 at 70 h [2]: 9590 nM
IC50 [3]: 5.96 nM
IC50 (MCF7): > 10000 nM
IC50 (HepG2): > 10000 nM
IC50 (HL-60 [4]): 6410 nM

Nc1nc2cc(-c3nn(CCCC(=O)OCC#CCOc4no[n+]([O-])c4S(=O)(=O)c4ccccc4)c4ncnc(N)c34)ccc2o1
Activity (HL-60 [1]): Active
inhibition (mTORC1 (Homo sapiens)): Dose-Dependent Effect
IC50 at 70 h [2]: > 10000 nM
inhibition (mTORC2 (Homo sapiens)): Dose-Dependent Effect
IC50 [3]: 3.65 nM
IC50 (MCF7): 880 nM
IC50 (HepG2): 240 nM
IC50 (HL-60 [4]): 20 nM

Nc1nc2cc(-c3nn(CCCC(=O)OCCCO[N+](=O)[O-])c4ncnc(N)c34)ccc2o1
Activity (HL-60 [1]): Active
IC50 at 70 h [2]: > 10000 nM
IC50 [3]: 9.82 nM
IC50 (MCF7): > 10000 nM
IC50 (HepG2): > 10000 nM
IC50 (HL-60 [4]): 7470 nM
